The values that follow come from ChEMBL document CHEMBL1151146, “Starfish Saponins, Part 43. Structures of Two New Sulfated Steroidal Fucofuranosides (Imbricatosides A and B) and Six New Polyhydroxysteroids from the Starfish Dermasterias imbricata” (J Nat Prod, 1990).

A short description of data set [1]: Inhibition of cell division of fertilized sea urchin eggs. Details: species or system Egg. The conditions noted are these: echinoidea.
Data set [2] relates to Cladosporium cucumerinum. Kind of data set: Antimicrobial activity against Cladosporium cucumerinum at <1 ug by TLC-based direct bioautography. In kind it is functional, organism-based.
For data set [3], the system named is Cladosporium cucumerinum. Kind of data set: Antimicrobial activity against Cladosporium cucumerinum at 3 ug by TLC-based direct bioautography. In kind it is functional, organism-based.
In data set [4] the test system is Cladosporium cucumerinum. Description: Antimicrobial activity against Cladosporium cucumerinum at 5 ug by TLC-based direct bioautography. In kind it is functional, organism-based.

Activity calls are given as the source filed them. The calls are words filed in the database; no cut-off is given here.

For `CC(C)[C@@H](O)/C=C/[C@@H](C)[C@H]1C[C@@H](O)[C@@H]2[C@]1(C)CC[C@@H]1[C@@]3(C)CC[C@H](O)C[C@@H]3[C@@H](O)C[C@]12O`, in data set [1], the outcome was Active. For the same molecule, in the data set on Cladosporium cucumerinum [2], the outcome was Active.
With `CC(C)[C@@H](O)CC[C@@H](C)[C@H]1C[C@@H](O)[C@@H]2[C@]1(C)CC[C@@H]1[C@@]3(C)CC[C@H](O)C[C@@H]3[C@@H](O)C[C@]12O`, in the data set on Cladosporium cucumerinum [3], the outcome was Active.
As to `C[C@H](CO)C/C=C/[C@@H](C)[C@H]1C[C@@H](O)[C@@H]2[C@]1(C)CC[C@@H]1[C@@]3(C)CC[C@H](O)C[C@@H]3[C@@H](O)C[C@]12O`, the result with Cladosporium cucumerinum [4] was Active.
